We go through 2 compounds from paper PMC9497102, “Thiosemicarbazone Derivatives Developed to Overcome COTI-2 Resistance” (Cancers, 2022).

The structures appear in SMILES notation. Marks after values point to notes of the source that are not given here.

Data set [1] deals with SW480/Coti cells. Put plainly: MTT viability assay with ABCB1/ABCC1 inhibitors verapamil and CSA. The following applies: 1 µM CSA and 10 µM verapamil, 72 h. It is filed as cell-based, human. How it is done: For the cytotoxicity, cell viability, and proliferation studies, the 3-(4,5-dimethylthiazol-2-yl)-2,5-diphenyltetrazolium bromide (MTT) assay was utilized. Cells were seeded in 96-well plates at a density of 2 × 10^4 cells/well, with the exception of SW480/Tria, which was used at a density of 3 × 10^4 cells/well. After 24 h of recovery, cells were treated with the indicated concentration of drugs. For the drug combination experiments, verapamil and cyclosporine A (CSA) were used as […] modulators, and tetrathiomolybdate (TTM) was used as a copper chelator. The TSCs were dissolved in DMSO followed by subsequent dilutions in the medium in order to maintain a final DMSO concentration of <1%. After 72 h, the treatment solution was removed and replaced with 100 µL of MTT solution (EZ4U, Biomedica, Vienna, Austria), which was diluted 1:10 in the growth medium. A TECAN Infinite 200 Pro plate reader was used to measure the absorbance of the solution after 2–3 h incubation at 5% CO2 in an incubator at 37 °C. The anticancer activity was determined with GraphPad Prism software and indicated as IC50 values (half maximum inhibitory concentration).
Background: Tetrazolium assays rely on reduction of a dye to a coloured formazan, in cell work by metabolically active cells.

For the next data set, the system named is SW480 cells. Put plainly: Detection of paraptotic vesicles (phase contrast microscopy). Conditions: 24 h. It is filed as cell-based, human. How it is done: SW480 and SW480/Coti cells were seeded at a density of 2 × 10^4 per well in 24-well plates and left to recover for 24 h. This was followed by drug treatment at the indicated concentration for 24 h. Images were captured with phase contrast using a Nikon eclipse Ti-e fluorescence microscope and a DS Fi1c camera. Cells containing vesicles were counted in ImageJ and plotted in GraphPad Prism as the percentage of all cells.

Data set [2] in a line: Cyclic voltammetry of iron(III)–ligand (1:2) systems. It is filed as physicochemical. Conditions: cL = 1 mM, pH 7.40, 25 °C, 90% (v/v) DMSO/H2O, 0.01 V/s scan rate. As for the experimental part:
Cyclic voltammograms for the Fe(III) and Cu(II) complexes were recorded in 90% (v/v) DMSO/water solution containing 1 mM ligand and 0.5 mM FeCl3 or 1 mM CuCl2 using a conventional three-electrode system under nitrogen atmosphere and a PC-Controlled Electrochemical Measurement System (EF 451). The ionic strength was 0.10 M, adjusted by TBAN. Samples were purged for 15 min with Ar before recording the cyclic voltammograms. Platinum electrodes were used as the working and auxiliary electrodes, and Ag/AgCl (3 M KCl) was applied as the reference electrode. The electrochemical potentials were converted into the normal hydrogen electrode (NHE) scale by adding 0.222 V. The instrument was calibrated with an aqueous solution of K3[Fe(CN)6] (E1/2 = +0.386 V vs. NHE). Redox potentials were obtained at different scan rates (5–25 mV/s) in the range of −0.8 to +0.1 V. The dependence of the peak current values of the square root of the scan rates is shown in Figure S5 for the iron and copper complexes of COTI-NMeCy.

Data set [3] relates to GLC-4/adr cells (ABCC1-overexpressing). Also noted: method as in PMID 33190481. Conditions: cited from earlier work.
The subject of data set [4] is SW480/Coti cells. Also noted: method as in PMID 33190481. Conditions: 72 h, MTT; cited from earlier work.
Another data set relates to GLC-4 cells. Also noted: method as in PMID 33190481. Conditions: 72 h, MTT; cited from earlier work.

In the case of `CN(C)C(=S)NN=C1CCCc2cccnc21` (mixture of isomers) [COTI-NMe2, 2-(6,7-Dihydroquinolin-8(5H)-ylidene)-N^4,N^4-dimethylhydrazine-1-carbothioamide], the “impact of verapamil and CSA on activity” value in the data set with SW480/Coti cells [1] is “no relevant impact”. Also, the “cells presenting paraptotic features” value in the data set on SW480 cells (0.1 µM) and in the data set with SW480 cells (1 µM) was 100% throughout.
As to `S=C(N/N=C1\CCCc2cccnc21)N1CCN(c2ccccn2)CC1` [COTI-2, 4-(pyridine-2-yl)-N-([(8E)-5,6,7,8-tetrahydroquinolin-8-ylidene]amino)piperazine-1-carbothioamide], in data set [2], the “E’ vs. NHE, iron(III)–ligand (1:2) systems” value was “+0.11 V”. The IC50 (commonly the concentration that inhibits the measured activity by half) in data set [3] (72 h, MTT) was 480 ± 150 nM; in the data set on SW480/Coti cells [4], 9510 ± 3110 nM; in the data set with GLC-4 cells it was 30 ± 10 nM. Moreover, the “Relative Resistance GLC-4/adr” value in data set [3] (IC50 of GLC-4/adr divided by IC50 of parental GLC-4) is listed as 17.3 *.
